Reference: patent US6949356B1, “Methods for improving secondary metabolite production in fungi” (Microbia, Inc., priority 1999, dated 2005)

Tested on: S. cerevisiae strain 22409
Assay: Lovastatin resistance test: yeast transformants spotted to SC-URA agar containing different concentrations of lovastatin (FIG. 1)
Format: cell-based, Saccharomyces cerevisiae
Procedure: These genes are predicted to encode proteins, denoted by Genbank accession numbers AAD34558 (hereafter referred to as PUMP1) and AAD34564 (hereby referred to as PUMP2), that are members of the MFS class of transporters. As described above, some MFS transporters are known to confer resistance to toxic compounds. PUMP1 and PUMP2 were tested for their ability to confer resistance to otherwise toxic levels of lovastatin when expressed in the fungus S. cerevisiae.
The polyA+ fraction of the A. terreus total RNA was isolated using Oligotex beads (Qiagen Inc.). Purified polyA+ RNA (5 μg) was used to generate complementary DNA (cDNA) using Superscript Reverse Transcriptase (Gibco BRL, 9800 Medical Center Drive, PO Box 6482, Rockville, Md. 20849) according to the instructions of the manufacturer. The cDNA was then used to isolate and clone PUMP1 and PUMP2 gene sequences using the polymerase chain reaction (PCR) and Gateway (Life Technologies) Cloning Technology (U.S. Pat. No. 5,888,732). Oligonucleotide sequences used for PCR were 5′-[…]-3′ (SEQ ID NO: 7) and 5′-[…]-3′ (SEQ ID NO: 8) for PUMP1. Oligonucleotide sequences used for PUMP2 PCR were 5′-[…]-3′ (SEQ ID NO: 9) and 5′-[…]-3′ (SEQ ID NO: 10). The resultant plasmids, MB1333 and MB1334, were designed to express PUMP1 and PUMP2, respectively, under control of the S. cerevisiae TEF1 promoter. The plasmids carry a functional URA3 gene to allow for selection of the plasmid on media lacking uracil in a ura3 mutant strain. These plasmids also contained a 2-micron origin for high-copy replication in yeast. […] Environ. Microbiol. 63: 33414 (1997) as pRH127-3, that expresses a soluble form of HMG CoA reductase under control of the yeast GPD1 promoter and is known to confer resistance to increased levels of lovastatin (Donald et al., Appl. Environ. Microbiol. 63: 3341-4 (1997)).
MB1333, MB1334, MB969 and MB1344 were transformed into the yeast strain 22409 (Research Genetics, USA) using standard transformation methods for S. cerevisiae (Biotechniques, 1992, 13(1): 18). Strain 22409 is derived from the S288c strain background of S. cerevisiae, and its complete genotype is as follows: MATa/α, his3Δ1/his3Δ1, leu2Δ1/leu2Δ0, ura3Δ0/ura3Δ0, LYS2/lys2Δ0, MET15/met15Δ0 pdr5::G418/PDR5. Transformants were grown overnight at 30° C. in synthetic complete media lacking uracil (SC-U) to maintain selection for the plasmid. Cultures were diluted 1:10 in sterile water, and 5 μl of each strain was spotted to SC-URA agar containing different concentrations of lovastatin as shown in FIG. 1.

CC[C@H](C)C(=O)O[C@H]1C[C@@H](C)C=C2C=C[C@H](C)[C@H](CC[C@@H]3C[C@@H](O)CC(=O)O3)[C@H]21 [lovastatin]
growth inhibition by lovastatin (positive control strain carrying MB1344 (soluble fragment of HMG CoA reductase overexpressed), highest concentration of lovastatin tested, 150 μg/ml): no obvious growth inhibition
growth inhibition by lovastatin (strain expressing PUMP2 (MB1334), lowest concentration of lovastatin tested, 50 μg/mL): growth inhibition
growth inhibition by lovastatin (strain harboring MB1333 (expressing PUMP1), highest concentration of lovastatin tested, 150 μg/ml): no obvious growth inhibition
growth inhibition by lovastatin (vector-only control strain (MB969), lowest concentration of lovastatin tested, 50 μg/mL): growth inhibition
